Source: article PMC8830292, “Anti-Toxoplasma gondii effect of lupane-type triterpenes from the bark of black alder (Alnus glutinosa) and identification of a potential target by reverse docking” (Parasite, 2022)

What was measured:
[1] = tested on: Toxoplasma gondii tachyzoites (strain RH, type I); assay: Half maximal inhibitory concentration (IC50) on T. gondii (enzyme immunoassay); format: cell-based; conditions: for Selectivity index (SI): SI = CC50/IC50 (Vero cells / T. gondii); for IC50: Toxoplasma gondii, T. gondii RH in Vero cells, 72 h
Protocol: (§1) All the experiments were performed in triplicate. Compound screening was performed at 10 μM in 96-well plates. Thus, 20,000 Vero cells contained in 200 μL of culture medium were filled in each well and left to adhere for 4 h at 37 °C and 5% of CO2. Then, 50,000 parasites contained in 50 μL of culture medium were filled, followed by 3 h of incubation in the same conditions. Wells were then emptied and 100 μL of solutions containing each drug at a final concentration of 10 μM were added. Incubation continued for 72 h.
(§2) The IC50 assays were processed in the same conditions as previously described. Dilutions were performed in a culture medium. The IC50 was determined using an adapted protocol from Doliwa et al.. Parasites and cells were first fixed with 100 μL of cold methanol for 5 min at −20 °C. Cells were then rehydrated with 100 μL of PBS at room temperature. Wells were then emptied and filled with 60 μL of a solution of anti-T. gondii rabbit antibody (Ref. 9070-0556, Biorad) diluted at 1/1000. After 1 hour of incubation at 37 °C, wells were washed three times with PBS, and 60 μL of anti-rabbit IgG horseradish conjugated goat antibody (Ref. 170-6515, Bio-Rad) at 1/1000 were added, followed by 1 h of incubation at 37 °C. The wells were washed three more times, and 200 μL of a solution of o-phenylenediamine dihydrochloride (Sigma, France) was added. After 15 min at room temperature, the enzymatic reaction was stopped by the addition of 50 μL of hydrochloric acid (HCl) 3 M. To finish, 200 μL of each well were transferred to a new well and a spectrophotometer reading was performed at 492 nm, corrected at 630 nm. Each experiment was performed with three controls: control with host cells alone, control with host cells and parasites without the drug for parasite multiplication, and control with host cells with parasites and pyrimethamine at 1 μM.

[2] = in vitro; conditions: African green monkey
Protocol: (§3) Vero cells (host cells of T. gondii tachyzoite) were purchased at ATCC (reference CCL-81), grown in Iscove Modified Dulbecco Media (IMDM) GlutaMAX medium (Gibco) supplemented with 5% decomplemented fetal calf serum with 1% penicillin/streptomycin. The culture was incubated at 37 °C and 5% CO2. Toxoplasma gondii tachyzoites (strain RH, type I) were grown in the same conditions as Vero cells except that the concentration of fetal calf serum was 2%.
(§4) The in vitro cytotoxicity was evaluated on Vero cell cultures using Uptiblue® viable cell-counting assay (Interchim, Montluçon, France). CC50 assays were performed in 96-well plates containing 20,000 Vero cells and 200 μL of culture medium identical to the one used for Vero cell maintenance. After 4 h of incubation, wells were emptied. The IC50 was performed with 100 μL of solutions containing the tested compounds with a final concentration range of 0–80 μM. After 72 h of incubation, wells were washed with 100 μL of phosphate-buffered saline (PBS) (Sigma-Aldrich, Saint-Quentin-Fallavier, France). Then, 100 μL of IMDM culture medium supplemented with 2% (v/v) of calf fetal serum and 10% (v/v) of Uptiblue® were added to each well. Plates were placed at 37 °C and 5% of CO2 for 3 h. Spectrophotometric measures were performed at 570 nm and corrected at 600 nm on an AMR-100 spectrophotometer (AllSheng, Hangzhou, China).

[3] = tested on: Toxoplasma gondii tachyzoites (strain RH, type I); assay: Screening at 10 μM: T. gondii parasite growth inhibition in Vero cells (enzyme immunoassay); format: cell-based; conditions: for inhibition at 10 µM / parasite growth inhibition: 72 h, triplicate, 10 μM
Protocol: as §1, §2

[4] = tested on: Vero cells; assay: Cytotoxicity evaluation, Uptiblue viable cell-counting assay
Protocol: as §3, §4

[5] = tested on: L. donovani; set-up: method as in earlier work; conditions: 50 μM; cited from earlier work
[6] = tested on: Vero cells; conditions: cited from earlier work
[7] = Solubility in DMSO; format: physicochemical
Protocol: Stock solutions at 1 mg/mL were prepared in cell culture grade dimethyl sulfoxide (DMSO, PanReac AppliChem, Darmstadt, Germany). Subsequent dilutions were made in a culture medium identical to the one used for tachyzoite maintenance.

[8] = tested on: Plasmodium falciparum K1 strain; set-up: method as in PMID 21438586; conditions: cited from earlier work
[9] = tested on: T. gondii; set-up: method as in PMID 23776166; conditions: in vitro growth of T. gondii; cited from earlier work
[10] = tested on: P. falciparum; set-up: method as in PMID 11239932; conditions: P. falciparum growth; cited from earlier work
[11] = tested on: Vero cells; set-up: method as in PMID 20441162; conditions: cited from earlier work
[12] = tested on: T. gondii; set-up: method as in PMID 20441162; conditions: cited from earlier work

Compound	Selectivity index (SI) [1]	IC50 [1]	CC50 at 72 h [2]	CC50 at 72 h ([2]; Vero cells (ATCC CCL-81))	inhibition at 10 µM ([3]; Toxoplasma gondii, Vero)	also measured
C=C(C)C1CCC2(C(=O)OC)CCC3(C)C(CCC4C5(C)CCC(=O)C(C)(C)C5CCC43C)C12 (stereo not drawn) [Betulonic acid methyl ester (8), betulonic acid methyl ester]	>25.8	3.1 ± 0.4 µM	> 80 µM			
CCc1nc(N)nc(N)c1-c1ccc(Cl)cc1 [Pyrimethamine (10), pyrimethamine, reference compound]	38.0	0.7 ± 0.2 µM		27.7 µM		inhibition at 1 µM ([3]; Toxoplasma gondii, Vero, 1 μM): 78%; cytotoxicity ([4]; 10 μM): cytotoxic
C=C(C)[C@@H]1CC[C@]2(CO)CC[C@]3(C)[C@H](CC[C@@H]4[C@@]5(C)CC[C@H](O)C(C)(C)[C@@H]5CC[C@]43C)[C@@H]12 [Betulin (1), betulin]	>6.0	13.3 ± 7.3 µM	> 80 µM		44%	inhibition of L. donovani [5]: 35.0%; CC50 [6]: 164 µM
C=C(C)C1CCC2(C(=O)O)CCC3(C)C(CCC4C5(C)CCC(=O)C(C)(C)C5CCC43C)C12 (stereo not drawn) [Betulonic acid (7), Betulonic acid]	>18.6	4.3 ± 1.4 µM		> 80 µM		inhibition of L. donovani [5]: 97.6%; cytotoxicity ([4]; 80 μM on Vero cells): without cytotoxicity
C=C(C)[C@@H]1CC[C@]2(C)CC[C@]3(C)[C@H](CC[C@@H]4[C@@]5(C)CC[C@H](O)C(C)(C)[C@@H]5CC[C@]43C)[C@@H]12 [Lupeol (5), lupeol]	>5.8	13.8 ± 4 µM		> 80 µM	60%	
C=C(C)[C@@H]1CC[C@]2(C)CC[C@]3(C)[C@H](CC[C@@H]4[C@@]5(C)CCC(=O)C(C)(C)[C@@H]5CC[C@]43C)[C@@H]12 [Lupenone, lupenone]						solubility in DMSO [7]: not soluble in DMSO
β-sitostenone [β-sitostenone (9)]						parasite growth inhibition [3]: did not show any relevant activity; parasite growth inhibition ([3]; listed as β-sitostenone): no specific activity
C=C(C)[C@@H]1CC[C@]2(C(=O)O)CC[C@]3(C)[C@H](CC[C@@H]4[C@@]5(C)CC[C@H](O)C(C)(C)[C@@H]5CC[C@]43C)[C@@H]12 [Betulinic acid (3), betulinic acid]	>9.6	8.3 ± 2.7 µM	> 80 µM		49%	inhibition of L. donovani [5]: 39.8%
C=C(C)[C@@H]1CC[C@]2(CO)CC[C@]3(C)[C@H](CC[C@@H]4[C@@]5(C)CCC(=O)C(C)(C)[C@@H]5CC[C@]43C)[C@@H]12 [Betulone (4), betulone]	>29.6	2.7 ± 1.2 µM	> 80 µM		99%	Selectivity index (SI) ([1]; listed as betulone): greater than 29; IC50 [8]: 3 µM
Oc1cc(Cl)ccc1Oc1ccc(Cl)cc1Cl [triclosan]						IC50 [9]: 3 µM; IC50 [10]: 1 µM
C=C(C)[C@@H]1CC[C@]2(C=O)CC[C@]3(C)[C@H](CC[C@@H]4[C@@]5(C)CC[C@H](O)C(C)(C)[C@@H]5CC[C@]43C)[C@@H]12 [Betulinaldehyde (2), betulinaldehyde]	>15.7	5.1 ± 0.6 µM		> 80 µM	93%	
CC1(C)CC[C@]2(C(=O)O)CC[C@]3(C)C(=CC[C@@H]4[C@@]5(C)C[C@@H](O)[C@H](O)C(C)(C)[C@@H]5CC[C@]43C)[C@@H]2C1 [maslinic acid]						LD50 [11]: 236.6 µM; LD50 [12]: 53.8 µM
